Data: patent US20080206287A1, “Use of cyclosporin A to sensitize resistant cancer cells to death receptor ligands” (priority 2006, published 2008)
Entries after “also recorded” stand apart in the source; their conditions may differ.

Assays:
Type in all cases: cell-based
[1] = test system: OVCAR-3 and T47D tumor lines; assay: Extrinsic versus intrinsic pathway stimuli in further tumor lines
PPC-1 cells = assay: PPC-1 cell viability (MTT) with or without CH-11 anti-FAS antibody; conditions: for direct toxicity: compound alone, concentrations up to 80 μM
Protocol: High throughput screening. Screens were performed using a fully integrated, programmable robotic liquid handling system (Biomek® FX, Beckman-Coulter Inc., Fullerton, Calif.), with integrated plate reader (LJL analyst HT 96-384, Sunnyvale, Calif.) and environmentally controlled plate carousel set at 37° C. and 5% CO2:95% air. PPC-1 cells (1×10^4) were seeded overnight into 96 well, flat-bottom plates (Costar, Cambridge, Mass.) in 100 μL of medium containing 2.5% FCS. The next day, aliquots from the 50,000 compound Diversa library were added at a final concentration of 7.5 μg/mL (about 25 μM) in a final concentration of 0.5% (v:v) dimethylsulfoxide (DMSO). CH-11 antibody (100 ng/mL) was then added, and the cells were incubated for 24 hours before assessing cell viability by a 3-(4,5-Dimethylthiazol-2-yl)-2,5-diphenyltetrazolium Bromide (MTT) dye reduction assay (Sigma).
Cell death assays. Cell viability was measured by MTT and MTS assays, essentially as described in Schimmer et al. (Cancer Cell 5:25-35, 2004). Absorbance readings were plotted against a standard curve to derive the corresponding cell number, and cell viability was expressed as a percentage relative to untreated cells. Apoptosis was measured by flow cytometric analysis of Annexin V surface expression after staining cells with FITC-anti-Annexin V and propidium iodide (PI) (Biovision, Mountain View, Calif.), as described in Pedersen et al. (Blood 100:2965-72, 2002).
Statistics. Cytotoxicity induced by compounds used in combination with conventional agents (e.g., CH-11, TRAIL, VP-16 and staurosporine) was evaluated for evidence of synergy toxicity by comparing the slopes of the dose-response curves. If the combination of the potential sensitizing compound with the conventional agent increased the slope of the dose-response curve compared to the slopes of either the sensitizer or the conventional agent alone, then the interaction was considered synergistic. […] Statistical significance was defined as a p<0.01, using two-sided tests. Synergy was confirmed by performing multiple drug dose-effect calculations using the Median Effect methods as described in Chou (“The Median-Effect Principle and the Combination Index for Quantitation of Synergism and Antagonism.” In: D. C. Rideout and T. C. Chou (eds.), Synergism and Antagonism in Chemotherapy, pp. 61-102: Academic Press, Inc., 1991).
Identification of small molecule FAS sensitizers. Resistance to death receptor ligands may permit malignant cells to escape immune surveillance and limit the clinical efficacy of recombinant death receptor ligands such as TRAIL. To identify small molecules that restore sensitivity to death receptor ligands, a cell-based high throughput screen was performed using the FAS and TRAIL-resistant prostate cancer cell line PPC-1 and a commercially available 50,000 compound library. The screens were performed in 96 well plates, to which compounds were added at 7.5 μg/ml (about 25 μM), followed by agonistic anti-FAS monoclonal antibody CH-11 (100 ng/mL). Cell viability was measured 24 hours later by MTT assay. […] The coefficient of variation (CV) for PPC-1 cells treated with CH-11 alone was determined to be 5%, based on 90 replicate determinations. A 50% decrease in cell viability was used as a cut-off for scoring hits.
From the primary screen of 50,000 compounds, 313 reproducible hits were obtained. To determine whether any of the 313 compounds were toxic molecules as opposed to FAS-sensitizers, the 313 compounds were evaluated in secondary screens where PPC-1 cells were treated with increasing concentrations of the compounds in the presence or absence of CH-11 antibody. Through these secondary screens, nine sensitizers were identified that increased CH-11-mediated killing above the cell death produced by treatment of the cells with the compound alone (Table 1). […]

ten tumor cell lines = assay: CH-11 killing of a spectrum of malignant cell lines; conditions: increasing concentrations with or without CH-11
Protocol: Effects of small molecule sensitizers on CH-11 killing of a spectrum of malignant cell lines. To assess the spectrum of activity of the small molecule FAS sensitizers, an additional nine malignant cell lines derived from breast, ovarian, and prostate carcinomas were treated with increasing concentrations of the sensitizers in the presence or absence of CH-11. […] None of the other compounds sensitized more than four of ten tumor lines to CH-11. […] Also, all of the non-responding cell lines, except Colo 205, had detectable levels of FLIP by immunoblotting. Thus, the failure of 609411 and 5809354 to sensitize these tumor lines to anti-FAS antibody was not due to either lack of FAS expression or absence of FLIP, with rare exception.

[2] = test system: PPC-1, OVCAR-3, T47D, MDA-MB-468 and DU 145 cells; assay: FLIP siRNA knock-down and CH-11 killing; conditions: PPC-1 cells transfected with FLIP siRNA
Protocol: Transfection of siRNA oligonucleotides. Double-stranded SMARTPOOL siRNA oligonucleotides targeting c-FLIP mRNA and double-stranded firefly luciferase control siRNA (Dharmacon Research, Lafayette, Colo.) (10 nM) were transfected into cells with Lipofectamine according to the manufacturer's instructions.
To test the functional importance of decreases in FLIP by 5809354, it was determined whether knocking down FLIP could recapitulate the activity of the molecule and abrogate 5809354's ability to sensitize cells to CH-11. PPC-1 cells were transfected with double stranded siRNA that targeted FLIP or luciferase as a control. At 24 hours after transfection, cells were treated with increasing concentrations of 5809354 with or without CH-11.

SMILES | sensitization to extrinsic versus intrinsic pathway stimuli [1] | EC50 (PPC-1 cells; Homo sapiens, PPC-1, PPC1 cells with anti-FAS antibody, read-out: EC50 as a FAS-sensitizer in PPC1 cells) | potency as a FAS-sensitizer relative to 5541203 (PPC-1 cells; PPC1 cells) | toxicity when added alone relative to 5541203 (PPC-1 cells; PPC1 cells, without anti-FAS antibody) | synergy with CH-11, median-dose combination index (CI) (PPC-1 cells; PPC-1 cells, combined with CH-11) | direct toxicity (PPC-1 cells; PPC-1 cells) | tumor cell lines sensitized to CH-11 (ten tumor cell lines) | enhancement of CH-11-mediated killing in the presence of FLIP siRNA [2]
CCn1c(=N)n(CC(=O)c2cc(C(C)(C)C)c(O)c(C(C)(C)C)c2)c2ccccc21 [compound 5569100, 1-(3,5-Di-tert-butyl-4-hydroxy-phenyl)-2-(3-ethyl-2-imino-2,3-dihydro-benzoimidazol-1-yl)-ethanone] | confirming that the results are not unique to PPC-1 cells | 5.6 µM | approximately 5 times | three times more toxic | did not demonstrate synergy | – | – | –
O=C(CCCOc1ccc(Cl)cc1Cl)NO [compound 5809354, 4-(2,4-dichlorophenoxy)-N-hydroxybutanamide] | confirming that the results are not unique to PPC-1 cells | – | – | – | – | little direct toxicity | sensitized the same tumor lines with the exception of HT29 | the longer enhanced CH-11-mediated killing
CC(=O)CC(=O)Nc1ccc(Cl)c(C(F)(F)F)c1 [compound 6094911, N-[4-chloro-3-(trifluoromethyl)phenyl]-3-oxobutanamide] | confirming that the results are not unique to PPC-1 cells | – | – | – | – | little direct toxicity | sensitized four of ten tumor cell lines to CH-11; also recorded: sensitizing 4 of 10 tumor lines; also recorded: enhanced FAS-induced killing of several tumor cell lines | –
